We go through 23 compounds from ChEMBL document CHEMBL1136022, “Development of tripeptidyl farnesyltransferase inhibitors” (Bioorg Med Chem Lett, 2002).

Assay [1] addresses Protein farnesyltransferase (Bos taurus) (UniProt P29702+P49355). In words: In vitro inhibition of bovine Farnesyltransferase at a 1 ug/mL. Format: protein-complex assay.
For assay [2], the target named is Protein farnesyltransferase (Bos taurus, UniProt P29702+P49355). The assay is described as follows: In vitro inhibition of bovine Farnesyltransferase. The format is protein-complex assay.

Where a SMILES comes first, the peptide text is derived from it. The star is where a group is joined. Isovaleryl = CC(C)CC(=O)*; Isobutyryl = CC(C)C(=O)*; Octanoyl = CCCCCCCC(=O)*; Hexanoyl = CCCCCC(=O)*; PhAc = O=C(Cc1ccccc1)*; Bz = O=C(c1ccccc1)*

In the case of `COC(=O)[C@H](COC(=O)c1ccc(Cl)cc1)NC(=O)[C@@H](NC(=O)[C@@H](N)CS)C(C)C`, the inhibition in assay [1] was 75%. Besides, the IC50 in assay [2] turned out to be 0.82 µM.

In turn, `COC(=O)[C@H](Cc1ccc(OC(=O)/C=C/c2ccccc2)cc1)NC(=O)[C@@H](NC(=O)[C@@H](N)CS)C(C)C` gave an inhibition in assay [1] of 12.6%. The compound further returned an IC50 in assay [2] of 43 µM.

`COC(=O)[C@H](COC(=O)c1ccccc1)NC(=O)[C@@H](NC(=O)[C@@H](N)CS)C(C)C` (H-Cys-Val-Ser(Bz)-OMe) yielded an inhibition in assay [1] of 69.3%. This compound also gave an IC50 in assay [2] of 0.9 µM.

For `COC(=O)[C@H](Cc1cccc(OC(=O)c2ccccc2)c1)NC(=O)[C@@H](NC(=O)[C@@H](N)CS)C(C)C`, in assay [1], the inhibition was 69.3%.

In turn, `COC(=O)[C@H](CO)NC(=O)[C@@H](NC(=O)[C@@H](N)CS)C(C)C` (H-Cys-Val-Ser-OMe) yielded an inhibition in assay [1] of 0%.

As for `COC(=O)[C@H](COC(=O)/C=C/c1ccccc1)NC(=O)[C@@H](NC(=O)[C@@H](N)CS)C(C)C`, the inhibition in assay [1] worked out at 16.3%.

In assay [2], `COC(=O)[C@H](CCSC)NC(=O)[C@H](Cc1ccccc1)NC(=O)[C@@H](NC(=O)[C@@H](N)CS)C(C)C` displayed an IC50 of 5.8 µM.

As for `COC(=O)[C@H](COC(=O)C=C(C)C)NC(=O)[C@@H](NC(=O)[C@@H](N)CS)C(C)C`, in assay [1], the inhibition was 38.6%.

On to `COC(=O)[C@H](Cc1cccc(OC(=O)/C=C/c2ccccc2)c1)NC(=O)[C@@H](NC(=O)[C@@H](N)CS)C(C)C`, for which the inhibition in assay [1] turned out to be 17%. This compound came in with an IC50 in assay [2] of 17 µM.

As to `CCCCCCCC(=O)Oc1ccc(C[C@H](NC(=O)[C@@H](NC(=O)[C@@H](N)CS)C(C)C)C(=O)OC)cc1` (H-Cys-Val-Tyr(Octanoyl)-OMe), the inhibition in assay [1] was 17%. The compound also came in with an IC50 in assay [2] of 22 µM.

`CCCCCC(=O)Oc1ccc(C[C@H](NC(=O)[C@@H](NC(=O)[C@@H](N)CS)C(C)C)C(=O)OC)cc1` (H-Cys-Val-Tyr(Hexanoyl)-OMe): in assay [1], the inhibition is 42%. The compound also showed an IC50 in assay [2] of 7.5 µM.

In the case of `COC(=O)[C@H](Cc1cccc(OC(=O)C=C(C)C)c1)NC(=O)[C@@H](NC(=O)[C@@H](N)CS)C(C)C`, the inhibition in assay [1] is 61%. The IC50 in assay [2] turned out to be 8.4 µM.

`COC(=O)[C@H](COC(=O)c1ccc(OC)cc1)NC(=O)[C@@H](NC(=O)[C@@H](N)CS)C(C)C`: the inhibition in assay [1] amounted to 57%. Also, the IC50 in assay [2] was determined as 1.8 µM.

As to `COC(=O)[C@H](Cc1ccc(OC(=O)C=C(C)C)cc1)NC(=O)[C@@H](NC(=O)[C@@H](N)CS)C(C)C`, in assay [1], the inhibition was 79.6%. For the same compound, in assay [2], the IC50 is 0.5 µM.

In the case of `COC(=O)[C@H](Cc1cccc(OC(=O)C(C)C)c1)NC(=O)[C@@H](NC(=O)[C@@H](N)CS)C(C)C`, the inhibition in assay [1] stood at 30%. In assay [2], half-maximal inhibition (IC50) required 10 µM.

`COC(=O)[C@H](Cc1ccc(OC(=O)c2ccccc2)cc1)NC(=O)[C@@H](NC(=O)[C@@H](N)CS)C(C)C` (H-Cys-Val-Tyr(Bz)-OMe): the inhibition in assay [1] amounted to 23.4%. This compound also gave an IC50 in assay [2] of 20 µM.

In the case of `COC(=O)[C@H](Cc1ccc(OC(=O)Cc2ccccc2)cc1)NC(=O)[C@@H](NC(=O)[C@@H](N)CS)C(C)C` (H-Cys-Val-Tyr(PhAc)-OMe), the inhibition in assay [1] worked out at 32%.

Compound `COC(=O)[C@H](Cc1ccc(OC(=O)CC(C)C)cc1)NC(=O)[C@@H](NC(=O)[C@@H](N)CS)C(C)C` (H-Cys-Val-Tyr(Isovaleryl)-OMe) yielded an inhibition in assay [1] of 74%. Moreover, in assay [2], the midpoint of inhibition, the IC50, lay at 0.82 µM.

As for `COC(=O)[C@H](Cc1ccc(OC(=O)C(C)C)cc1)NC(=O)[C@@H](NC(=O)[C@@H](N)CS)C(C)C` (H-Cys-Val-Tyr(Isobutyryl)-OMe), the inhibition in assay [1] amounted to 26.7%. This compound also yielded an IC50 in assay [2] of 12 µM.

As for `COC(=O)[C@H](Cc1ccc(OC(=O)CC(C)CCCC(C)C)cc1)NC(=O)[C@@H](NC(=O)[C@@H](N)CS)C(C)C` (some centres undefined), in assay [1], the inhibition was 10%. In addition, the IC50 in assay [2] is 8.1 µM.

Regarding `COC(=O)[C@H](Cc1ccc(OC(C)=O)cc1)NC(=O)[C@@H](NC(=O)[C@@H](N)CS)C(C)C` (H-Cys-Val-Tyr(Ac)-OMe), in assay [1], the inhibition is 6.3%. Moreover, half-maximal inhibition in assay [2] (IC50) required 48 µM.

In assay [1], `COC(=O)[C@H](Cc1cccc(OC(C)=O)c1)NC(=O)[C@@H](NC(=O)[C@@H](N)CS)C(C)C` came in with an inhibition of 12%.

In assay [1], `COC(=O)[C@H](COC(=O)c1ccc(C)cc1)NC(=O)[C@@H](NC(=O)[C@@H](N)CS)C(C)C` had an inhibition of 67%. This compound had an IC50 in assay [2] of 0.92 µM.

As usually defined, the inhibition is the change of the read-out against control, counted positive when it falls. A low value points to little suppression. What is called IC50 is the concentration that gives 50% inhibition.
